Test results as given in US12281122B1, “PI3K inhibitors” (Cogent Biosciences, Inc., priority 2023, dated 2025).

Key:
[1] = test system: SKBR3 (PI3Kα-Wild Type) cell line; assay: HTRF phospho-AKT(S473) cell assay in SKBR3 cells; assay type: cell-based, human; conditions: Homo sapiens, SK-BR-3; HTRF phospho-AKT(S473), SKBR3 (PI3Kα-Wild Type) cells, 2 hours compound incubation, PDGF-BB stimulated
Summary of the method: (§1)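 T47D: RPMI + 10% FBS + 0.2 units/mL insulin, top 5 μM. SKBR3: McCoy's 5A + 10% FBS, top 10 μM, 70 ng/ml PDGF-BB last 15 min. Both: 12-pt 1:3, 2 h, 37° C, max 0.5% DMSO; HTRF pAKT(S473); IC50.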

[2] = test system: T47D (PI3Kα-H1047R) cell line; assay: HTRF phospho-AKT(S473) cell assay in T47D cells; assay type: cell-based, human; conditions: Homo sapiens; HTRF phospho-AKT(S473), T47D (PI3Kα-H1047R) cells, 2 hours compound incubation
Summary of the method: as §1

Structure (SMILES): Cc1cc([C@@H](C)Nc2ccc(Cl)nc2C(=O)NS(C)(=O)=O)c2nc(N3CCC(c4cc5n(n4)CCO5)CC3)n(C)c(=O)c2c1 [Compound 556, (R)-6-chloro-3-((1-(2-(4-(2,3-dihydropyrazolo[5,1-b]oxazol-6-yl)piperidin-1-yl)-3,6-dimethyl-4-oxo-3,4-dihydroquinazolin-8-yl)ethyl)amino)-N-(methylsulfonyl) picolinamide]
- IC50 [1]: 1000 to 5000 nM
- IC50 [2]: < 250 nM

Structure (SMILES): Cc1cc([C@@H](C)Nc2ccc(Cl)nc2C(=O)NS(C)(=O)=O)c2nc(N3CCC(c4nnc(C)o4)CC3)n(C)c(=O)c2c1 [Compound 557, (R)-6-chloro-3-((1-(3,6-dimethyl-2-(4-(5-methyl-1,3,4-oxadiazol-2-yl)piperidin-1-yl)-4-oxo-3,4-dihydroquinazolin-8-yl)ethyl)amino)-N-(methylsulfonyl) picolinamide]
- IC50 [1]: 1000 to 5000 nM
- IC50 [2]: 250 to 500 nM

Structure (SMILES): Cc1cc([C@@H](C)Nc2ccc(Cl)nc2C(=O)NS(C)(=O)=O)c2nc(N3CCC(c4nnc(C)s4)CC3)n(C)c(=O)c2c1 [Compound 558, (R)-6-chloro-3-((1-(3,6-dimethyl-2-(4-(5-methyl-1,3,4-thiadiazol-2-yl)piperidin-1-yl)-4-oxo-3,4-dihydroquinazolin-8-yl)ethyl)amino)-N-(methylsulfonyl) picolinamide]
- IC50 [1]: 1000 to 5000 nM
- IC50 [2]: < 250 nM

Structure (SMILES): Cc1cc([C@@H](C)Nc2ccc(Cl)nc2C(=O)NS(C)(=O)=O)c2nc(N3C[C@@H]4[C@H](C3)[C@H]4c3cnn(C4CC4)n3)n(C)c(=O)c2c1 [Compound 559, 6-chloro-3-(((R)-1-(2-((1R,5S,6R)-6-(2-cyclopropyl-2H-1,2,3-triazol-4-yl)-3-azabicyclo[3.1.0]hexan-3-yl)-3,6-dimethyl-4-oxo-3,4-dihydroquinazolin-8-yl)ethyl)amino)-N-(methylsulfonyl) picolinamide]
- IC50 [1]: ≥ 5000 nM
- IC50 [2]: 250 to 500 nM

Structure (SMILES): C[C@@H](Nc1ccc(Cl)nc1C(=O)NS(C)(=O)=O)c1cc(F)cc2c(=O)n(C)c(N3CC[C@@H](Oc4cnn(C)c4)C3)nc12 [Compound 560, 6-chloro-3-(((R)-1-(6-fluoro-3-methyl-2-((R)-3-((1-methyl-1H-pyrazol-4-yl)oxy)pyrrolidin-1-yl)-4-oxo-3,4-dihydroquinazolin-8-yl)ethyl)amino)-N-(methylsulfonyl) picolinamide]
- IC50 [1]: 1000 to 5000 nM
- IC50 [2]: < 250 nM

Structure (SMILES): Cc1cc([C@@H](C)Nc2ccc(Cl)nc2C(=O)NS(C)(=O)=O)c2nc(N3CCC(C4=NN(C)C(=O)C4(F)F)CC3)n(C)c(=O)c2c1 [Compound 561, (R)-6-chloro-3-((1-(2-(4-(4,4-difluoro-1-methyl-5-oxo-4,5-dihydro-1H-pyrazol-3-yl)piperidin-1-yl)-3,6-dimethyl-4-oxo-3,4-dihydroquinazolin-8-yl)ethyl)amino)-N-(methylsulfonyl) picolinamide]
- IC50 [1]: ≥ 5000 nM
- IC50 [2]: 250 to 500 nM

Structure (SMILES): COc1nc(C2CCN(c3nc4c([C@@H](C)Nc5ccc(Cl)nc5C(=O)NS(C)(=O)=O)cc(C)cc4c(=O)n3C)CC2)ncc1C [Compound 562, (R)-6-chloro-3-((1-(2-(4-(4-methoxy-5-methylpyrimidin-2-yl)piperidin-1-yl)-3,6-dimethyl-4-oxo-3,4-dihydroquinazolin-8-yl)ethyl)amino)-N-(methylsulfonyl) picolinamide]
- IC50 [1]: ≥ 5000 nM
- IC50 [2]: 250 to 500 nM

Structure (SMILES): COc1nccnc1C1CCN(c2nc3c([C@@H](C)Nc4ccc(Cl)nc4C(=O)NS(C)(=O)=O)cc(C)cc3c(=O)n2C)CC1 [Compound 563, (R)-6-chloro-3-((1-(2-(4-(3-methoxypyrazin-2-yl)piperidin-1-yl)-3,6-dimethyl-4-oxo-3,4-dihydroquinazolin-8-yl)ethyl)amino)-N-(methylsulfonyl) picolinamide]
- IC50 [1]: ≥ 5000 nM
- IC50 [2]: 250 to 500 nM

Structure (SMILES): Cc1cnc(N2C[C@@H]3C[C@H]2CN3c2nc3c([C@@H](C)Nc4ccc(Cl)nc4C(=O)NS(C)(=O)=O)cc(C)cc3c(=O)n2C)nc1 [Compound 564, 6-chloro-3-(((R)-1-(3,6-dimethyl-2-((1S,4S)-5-(5-methylpyrimidin-2-yl)-2,5-diazabicyclo[2.2.1]heptan-2-yl)-4-oxo-3,4-dihydroquinazolin-8-yl)ethyl)amino)-N-(methylsulfonyl) picolinamide]
- IC50 [1]: ≥ 5000 nM
- IC50 [2]: 250 to 500 nM

Structure (SMILES): Cc1cnc(N2C[C@H]3C[C@@H]2CN3c2nc3c([C@@H](C)Nc4ccc(Cl)nc4C(=O)NS(C)(=O)=O)cc(C)cc3c(=O)n2C)nc1 [Compound 565, 6-chloro-3-(((R)-1-(3,6-dimethyl-2-((1R,4R)-5-(5-methylpyrimidin-2-yl)-2,5-diazabicyclo[2.2.1]heptan-2-yl)-4-oxo-3,4-dihydroquinazolin-8-yl)ethyl)amino)-N-(methylsulfonyl) picolinamide]
- IC50 [1]: ≥ 5000 nM
- IC50 [2]: 250 to 500 nM

Structure (SMILES): Cc1cc([C@@H](C)Nc2ccc(Cl)nc2C(=O)NS(C)(=O)=O)c2nc(N3C[C@@H]4[C@H](C3)[C@H]4n3cnc(C)n3)n(C)c(=O)c2c1 [Compound 566, 6-chloro-3-(((R)-1-(3,6-dimethyl-2-((1R,5S,6S)-6-(3-methyl-1H-1,2,4-triazol-1-yl)-3-azabicyclo[3.1.0]hexan-3-yl)-4-oxo-3,4-dihydroquinazolin-8-yl)ethyl)amino)-N-(methylsulfonyl) picolinamide]
- IC50 [1]: 1000 to 5000 nM
- IC50 [2]: 250 to 500 nM

Structure (SMILES): Cc1cc([C@@H](C)Nc2ccc(Cl)nc2C(=O)NS(C)(=O)=O)c2nc(N3C[C@@H]4[C@H](C3)[C@H]4c3cc(C)n(C4CC4)n3)n(C)c(=O)c2c1 [Compound 567, 6-chloro-3-(((R)-1-(2-((1R,5S,6R)-6-(1-cyclopropyl-5-methyl-1H-pyrazol-3-yl)-3-azabicyclo[3.1.0]hexan-3-yl)-3,6-dimethyl-4-oxo-3,4-dihydroquinazolin-8-yl)ethyl)amino)-N-(methylsulfonyl) picolinamide]
- IC50 [1]: ≥ 5000 nM
- IC50 [2]: 250 to 500 nM

Structure (SMILES): Cc1cc([C@@H](C)Nc2ccc(Cl)nc2C(=O)NS(C)(=O)=O)c2nc(N3C[C@@H]4[C@H](C3)[C@H]4c3cc(C)nn3C3CC3)n(C)c(=O)c2c1 [Compound 568, 6-chloro-3-(((R)-1-(2-((1R,5S,6R)-6-(1-cyclopropyl-3-methyl-1H-pyrazol-5-yl)-3-azabicyclo[3.1.0]hexan-3-yl)-3,6-dimethyl-4-oxo-3,4-dihydroquinazolin-8-yl)ethyl)amino)-N-(methylsulfonyl) picolinamide]
- IC50 [1]: 1000 to 5000 nM
- IC50 [2]: 250 to 500 nM

Structure (SMILES): Cc1cc([C@@H](C)Nc2ccc(Cl)nc2C(=O)NS(C)(=O)=O)c2nc(N3C[C@@H]4[C@H](C3)[C@H]4c3nn(C4CC4)cc3F)n(C)c(=O)c2c1 [Compound 569, 6-chloro-3-(((R)-1-(2-((1R,5S,6R)-6-(1-cyclopropyl-4-fluoro-1H-pyrazol-3-yl)-3-azabicyclo[3.1.0]hexan-3-yl)-3,6-dimethyl-4-oxo-3,4-dihydroquinazolin-8-yl)ethyl)amino)-N-(methylsulfonyl) picolinamide]
- IC50 [1]: ≥ 5000 nM
- IC50 [2]: 250 to 500 nM

Structure (SMILES): Cc1cc([C@@H](C)Nc2ccc(Cl)nc2C(=O)NS(C)(=O)=O)c2nc(N3C[C@@H]4[C@H](C3)[C@H]4c3c(F)cnn3C3CC3)n(C)c(=O)c2c1 [Compound 570, 6-chloro-3-(((R)-1-(2-((1R,5S,6R)-6-(1-cyclopropyl-4-fluoro-1H-pyrazol-5-yl)-3-azabicyclo[3.1.0]hexan-3-yl)-3,6-dimethyl-4-oxo-3,4-dihydroquinazolin-8-yl)ethyl)amino)-N-(methylsulfonyl) picolinamide]
- IC50 [1]: ≥ 5000 nM
- IC50 [2]: < 250 nM

Structure (SMILES): Cc1cc([C@@H](C)Nc2ccc(Cl)nc2C(=O)NS(C)(=O)=O)c2nc(N3CCC(c4cc(C)on4)CC3)n(C)c(=O)c2c1 [Compound 571, (R)-6-chloro-3-((1-(3,6-dimethyl-2-(4-(5-methylisoxazol-3-yl)piperidin-1-yl)-4-oxo-3,4-dihydroquinazolin-8-yl)ethyl)amino)-N-(methylsulfonyl) picolinamide]
- IC50 [1]: 1000 to 5000 nM
- IC50 [2]: < 250 nM

Structure (SMILES): CCn1c(N2C[C@@H]3[C@H](C2)[C@H]3c2cnc(C)cn2)nc2c([C@@H](C)Nc3ccc(Cl)nc3C(=O)NS(C)(=O)=O)cc(C)cc2c1=O [Compound 572, 6-chloro-3-(((R)-1-(3-ethyl-6-methyl-2-((1R,5S,6R)-6-(5-methylpyrazin-2-yl)-3-azabicyclo[3.1.0]hexan-3-yl)-4-oxo-3,4-dihydroquinazolin-8-yl)ethyl)amino)-N-(methylsulfonyl) picolinamide]
- IC50 [1]: 1000 to 5000 nM
- IC50 [2]: < 250 nM

Structure (SMILES): Cc1cc([C@@H](C)Nc2ccc(Cl)nc2C(=O)NS(C)(=O)=O)c2nc(N3CCC(c4cn(C(C)C)nn4)CC3)n(C)c(=O)c2c1 [Compound 573, (R)-6-chloro-3-((1-(2-(4-(1-isopropyl-1H-1,2,3-triazol-4-yl)piperidin-1-yl)-3,6-dimethyl-4-oxo-3,4-dihydroquinazolin-8-yl)ethyl)amino)-N-(methylsulfonyl) picolinamide]
- IC50 [1]: 1000 to 5000 nM
- IC50 [2]: < 250 nM

Structure (SMILES): Cc1cc([C@@H](C)Nc2ccc(Cl)nc2C(=O)NS(C)(=O)=O)c2nc(N3CCN(c4ccc(F)cn4)CC3)n(C)c(=O)c2c1 [Compound 574, (R)-6-chloro-3-((1-(2-(4-(5-fluoropyridin-2-yl)piperazin-1-yl)-3,6-dimethyl-4-oxo-3,4-dihydroquinazolin-8-yl)ethyl)amino)-N-(methylsulfonyl) picolinamide]
- IC50 [1]: 1000 to 5000 nM
- IC50 [2]: 250 to 500 nM

Structure (SMILES): Cc1cc([C@@H](C)Nc2ccc(Cl)nc2C(=O)NS(C)(=O)=O)c2nc(N3CCN(c4nc(C)ncc4F)CC3)n(C)c(=O)c2c1 [Compound 575, (R)-6-chloro-3-((1-(2-(4-(5-fluoro-2-methylpyrimidin-4-yl)piperazin-1-yl)-3,6-dimethyl-4-oxo-3,4-dihydroquinazolin-8-yl)ethyl)amino)-N-(methylsulfonyl) picolinamide]
- IC50 [1]: 1000 to 5000 nM
- IC50 [2]: < 250 nM
